From PMC9329436, “Optimization of the 4-anilinoquin(az)oline scaffold as epidermal growth factor receptor (EGFR) inhibitors for chordoma utilizing a toxicology profiling assay platform” (Scientific Reports, 2022)
Like-named read-outs stand apart in the source and are kept apart here.

What was measured:
Format in all cases: biochemical
[1] = target: 320 wild-type protein kinases (Homo sapiens, UniProt P06213); details: INS-R, singlicate
Excerpt: (§1) Table S4. Profiling of two compounds at two concentrations against 320 wild-type protein kinases; singlicate measurement; Residual activities (% of control).

[2] = target: 320 wild-type protein kinases (Homo sapiens, UniProt P36894); details: BMPR1A, singlicate
Excerpt: as §1

[3] = target: 320 wild-type protein kinases (Homo sapiens, UniProt Q13627); details: DYRK1A, singlicate
Excerpt: as §1

[4] = target: 320 wild-type protein kinases (Homo sapiens, UniProt Q8TDX7); details: singlicate
Excerpt: as §1

[5] = target: 320 wild-type protein kinases (Homo sapiens, UniProt Q13177); details: singlicate
Excerpt: as §1

[6] = target: 320 wild-type protein kinases (Homo sapiens, UniProt Q5TCX8); details: singlicate
Excerpt: as §1

[7] = target: T1, 320 wild-type protein kinases (Homo sapiens, UniProt Q32MK0); details: singlicate
T1 sequence (Q32MK0 1-819): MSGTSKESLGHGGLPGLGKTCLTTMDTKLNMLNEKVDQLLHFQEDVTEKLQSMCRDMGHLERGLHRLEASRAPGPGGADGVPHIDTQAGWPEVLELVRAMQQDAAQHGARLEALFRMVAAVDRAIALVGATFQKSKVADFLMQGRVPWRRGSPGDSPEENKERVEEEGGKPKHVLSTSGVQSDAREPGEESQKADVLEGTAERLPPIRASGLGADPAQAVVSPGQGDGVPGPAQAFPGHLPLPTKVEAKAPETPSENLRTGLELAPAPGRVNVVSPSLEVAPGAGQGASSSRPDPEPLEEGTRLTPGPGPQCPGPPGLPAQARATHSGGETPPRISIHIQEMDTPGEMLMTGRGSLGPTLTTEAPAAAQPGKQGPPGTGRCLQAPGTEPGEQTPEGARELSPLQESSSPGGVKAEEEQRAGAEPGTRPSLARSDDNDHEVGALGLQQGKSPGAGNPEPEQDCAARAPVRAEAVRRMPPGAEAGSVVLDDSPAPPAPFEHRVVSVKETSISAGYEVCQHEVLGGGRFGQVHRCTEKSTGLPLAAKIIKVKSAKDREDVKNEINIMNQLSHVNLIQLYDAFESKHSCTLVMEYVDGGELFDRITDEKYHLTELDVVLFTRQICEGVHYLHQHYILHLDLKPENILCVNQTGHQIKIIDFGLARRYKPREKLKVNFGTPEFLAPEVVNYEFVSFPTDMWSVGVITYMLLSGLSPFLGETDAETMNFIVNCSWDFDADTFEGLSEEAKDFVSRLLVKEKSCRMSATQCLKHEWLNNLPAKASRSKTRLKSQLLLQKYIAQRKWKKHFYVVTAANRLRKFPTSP
Excerpt: as §1

[8] = target: T2, 320 wild-type protein kinases (Homo sapiens, UniProt Q9H2K8); details: kinase TAOK3, singlicate
T2 sequence (Q9H2K8 1-898): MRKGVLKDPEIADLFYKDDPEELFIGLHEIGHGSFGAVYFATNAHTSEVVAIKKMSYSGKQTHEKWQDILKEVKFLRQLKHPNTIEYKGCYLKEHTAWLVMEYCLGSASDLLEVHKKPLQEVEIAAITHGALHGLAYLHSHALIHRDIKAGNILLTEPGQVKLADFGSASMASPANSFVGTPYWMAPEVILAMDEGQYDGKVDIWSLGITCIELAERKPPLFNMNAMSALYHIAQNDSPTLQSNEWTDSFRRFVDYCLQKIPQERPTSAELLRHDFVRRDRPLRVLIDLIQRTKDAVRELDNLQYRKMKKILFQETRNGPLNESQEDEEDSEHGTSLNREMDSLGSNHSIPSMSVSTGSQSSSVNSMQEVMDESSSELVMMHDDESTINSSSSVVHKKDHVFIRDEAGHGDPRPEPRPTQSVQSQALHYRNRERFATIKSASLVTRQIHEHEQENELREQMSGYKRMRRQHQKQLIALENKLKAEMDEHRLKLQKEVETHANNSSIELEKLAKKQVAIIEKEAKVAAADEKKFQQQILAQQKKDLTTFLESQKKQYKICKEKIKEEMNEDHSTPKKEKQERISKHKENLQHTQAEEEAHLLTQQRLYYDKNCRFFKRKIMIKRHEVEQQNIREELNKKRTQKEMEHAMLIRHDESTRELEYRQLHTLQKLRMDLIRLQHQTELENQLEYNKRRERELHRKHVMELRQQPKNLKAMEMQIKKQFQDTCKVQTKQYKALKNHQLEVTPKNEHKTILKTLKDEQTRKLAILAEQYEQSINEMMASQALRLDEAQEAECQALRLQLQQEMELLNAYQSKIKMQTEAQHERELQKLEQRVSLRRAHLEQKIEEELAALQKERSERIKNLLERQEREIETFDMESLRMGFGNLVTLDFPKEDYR
Excerpt: as §1

[9] = target: T3, 320 wild-type protein kinases (Homo sapiens, UniProt Q13163); details: singlicate
T3 sequence (Q13163 1-448): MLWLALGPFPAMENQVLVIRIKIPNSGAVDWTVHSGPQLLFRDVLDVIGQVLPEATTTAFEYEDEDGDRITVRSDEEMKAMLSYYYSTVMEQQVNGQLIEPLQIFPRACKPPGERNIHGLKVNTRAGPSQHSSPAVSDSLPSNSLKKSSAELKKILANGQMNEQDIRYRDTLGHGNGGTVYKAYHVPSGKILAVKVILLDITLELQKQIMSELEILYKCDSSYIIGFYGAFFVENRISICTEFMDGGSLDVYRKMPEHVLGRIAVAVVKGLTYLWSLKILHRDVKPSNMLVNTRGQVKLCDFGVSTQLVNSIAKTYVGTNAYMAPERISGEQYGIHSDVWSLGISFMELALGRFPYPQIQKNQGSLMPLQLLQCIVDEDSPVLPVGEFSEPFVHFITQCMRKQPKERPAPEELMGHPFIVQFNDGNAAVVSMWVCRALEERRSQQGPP
Excerpt: as §1

Sequence of 320 wild-type protein kinases (Homo sapiens, UniProt Q13177) (Q13177 whole entry): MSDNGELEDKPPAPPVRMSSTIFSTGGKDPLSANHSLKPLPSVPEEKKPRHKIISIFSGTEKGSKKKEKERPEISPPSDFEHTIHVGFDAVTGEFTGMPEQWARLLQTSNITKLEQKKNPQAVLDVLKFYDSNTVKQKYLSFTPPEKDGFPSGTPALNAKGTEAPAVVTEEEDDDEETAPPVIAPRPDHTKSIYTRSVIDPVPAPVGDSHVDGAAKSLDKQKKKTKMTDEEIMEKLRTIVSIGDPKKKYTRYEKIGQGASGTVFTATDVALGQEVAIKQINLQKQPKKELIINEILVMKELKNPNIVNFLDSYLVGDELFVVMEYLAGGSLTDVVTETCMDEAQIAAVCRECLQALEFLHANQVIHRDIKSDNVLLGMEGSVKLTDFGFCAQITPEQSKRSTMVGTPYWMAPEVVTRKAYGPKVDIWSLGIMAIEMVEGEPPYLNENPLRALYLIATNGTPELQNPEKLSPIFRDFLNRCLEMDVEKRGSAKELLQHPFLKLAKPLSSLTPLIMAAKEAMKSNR
Sequence of 320 wild-type protein kinases (Homo sapiens, UniProt Q8TDX7) (Q8TDX7 whole entry): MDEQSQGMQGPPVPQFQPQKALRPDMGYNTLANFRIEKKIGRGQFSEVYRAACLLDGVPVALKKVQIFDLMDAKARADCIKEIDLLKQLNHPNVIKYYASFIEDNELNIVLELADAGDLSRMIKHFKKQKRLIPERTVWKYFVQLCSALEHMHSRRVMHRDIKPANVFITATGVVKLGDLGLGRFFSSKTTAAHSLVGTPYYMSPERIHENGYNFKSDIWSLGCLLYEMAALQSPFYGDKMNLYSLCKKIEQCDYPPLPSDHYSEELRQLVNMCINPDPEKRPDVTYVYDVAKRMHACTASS
Sequence of 320 wild-type protein kinases (Homo sapiens, UniProt Q5TCX8) (Q5TCX8 whole entry): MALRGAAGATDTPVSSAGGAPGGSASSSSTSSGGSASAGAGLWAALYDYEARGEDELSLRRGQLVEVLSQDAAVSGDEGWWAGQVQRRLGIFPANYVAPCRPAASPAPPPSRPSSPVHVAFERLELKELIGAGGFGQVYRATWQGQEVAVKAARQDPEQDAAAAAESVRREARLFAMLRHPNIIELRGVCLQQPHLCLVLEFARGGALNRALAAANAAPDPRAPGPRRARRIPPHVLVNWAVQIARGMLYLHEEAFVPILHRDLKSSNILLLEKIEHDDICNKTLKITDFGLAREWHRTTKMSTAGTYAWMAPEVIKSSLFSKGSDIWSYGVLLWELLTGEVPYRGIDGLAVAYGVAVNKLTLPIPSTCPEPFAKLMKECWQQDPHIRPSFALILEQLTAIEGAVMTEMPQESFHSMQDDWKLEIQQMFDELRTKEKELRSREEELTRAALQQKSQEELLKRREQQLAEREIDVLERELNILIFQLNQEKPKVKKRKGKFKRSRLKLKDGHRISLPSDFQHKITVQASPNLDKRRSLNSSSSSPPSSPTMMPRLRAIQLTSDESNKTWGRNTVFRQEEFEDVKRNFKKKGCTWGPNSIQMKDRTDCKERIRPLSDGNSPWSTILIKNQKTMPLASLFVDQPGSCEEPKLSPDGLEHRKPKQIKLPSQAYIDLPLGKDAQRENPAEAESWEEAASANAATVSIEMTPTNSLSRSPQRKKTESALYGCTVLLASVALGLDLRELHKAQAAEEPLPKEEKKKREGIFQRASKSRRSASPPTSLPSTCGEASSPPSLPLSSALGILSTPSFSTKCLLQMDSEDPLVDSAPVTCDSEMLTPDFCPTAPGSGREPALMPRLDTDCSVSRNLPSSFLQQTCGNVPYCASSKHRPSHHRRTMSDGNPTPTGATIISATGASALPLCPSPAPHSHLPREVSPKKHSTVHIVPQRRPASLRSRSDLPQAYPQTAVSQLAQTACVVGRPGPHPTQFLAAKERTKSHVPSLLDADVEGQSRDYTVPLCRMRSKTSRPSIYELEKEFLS
Sequence of 320 wild-type protein kinases (Homo sapiens, UniProt P36894) (P36894 24-532): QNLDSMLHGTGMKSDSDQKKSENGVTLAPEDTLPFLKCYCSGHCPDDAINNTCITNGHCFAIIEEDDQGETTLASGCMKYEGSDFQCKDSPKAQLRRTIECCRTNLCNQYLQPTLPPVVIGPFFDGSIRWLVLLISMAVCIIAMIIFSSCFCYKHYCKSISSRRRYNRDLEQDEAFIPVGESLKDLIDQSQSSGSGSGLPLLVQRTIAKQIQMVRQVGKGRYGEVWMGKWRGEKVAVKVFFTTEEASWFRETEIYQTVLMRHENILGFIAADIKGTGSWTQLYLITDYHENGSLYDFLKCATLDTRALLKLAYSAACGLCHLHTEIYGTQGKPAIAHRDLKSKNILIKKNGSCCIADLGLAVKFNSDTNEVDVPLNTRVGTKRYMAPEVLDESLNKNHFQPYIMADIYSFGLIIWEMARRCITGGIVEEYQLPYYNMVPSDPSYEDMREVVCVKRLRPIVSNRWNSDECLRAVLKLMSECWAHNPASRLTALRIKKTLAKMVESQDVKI
Sequence of 320 wild-type protein kinases (Homo sapiens, UniProt P06213) (P06213 28-1382): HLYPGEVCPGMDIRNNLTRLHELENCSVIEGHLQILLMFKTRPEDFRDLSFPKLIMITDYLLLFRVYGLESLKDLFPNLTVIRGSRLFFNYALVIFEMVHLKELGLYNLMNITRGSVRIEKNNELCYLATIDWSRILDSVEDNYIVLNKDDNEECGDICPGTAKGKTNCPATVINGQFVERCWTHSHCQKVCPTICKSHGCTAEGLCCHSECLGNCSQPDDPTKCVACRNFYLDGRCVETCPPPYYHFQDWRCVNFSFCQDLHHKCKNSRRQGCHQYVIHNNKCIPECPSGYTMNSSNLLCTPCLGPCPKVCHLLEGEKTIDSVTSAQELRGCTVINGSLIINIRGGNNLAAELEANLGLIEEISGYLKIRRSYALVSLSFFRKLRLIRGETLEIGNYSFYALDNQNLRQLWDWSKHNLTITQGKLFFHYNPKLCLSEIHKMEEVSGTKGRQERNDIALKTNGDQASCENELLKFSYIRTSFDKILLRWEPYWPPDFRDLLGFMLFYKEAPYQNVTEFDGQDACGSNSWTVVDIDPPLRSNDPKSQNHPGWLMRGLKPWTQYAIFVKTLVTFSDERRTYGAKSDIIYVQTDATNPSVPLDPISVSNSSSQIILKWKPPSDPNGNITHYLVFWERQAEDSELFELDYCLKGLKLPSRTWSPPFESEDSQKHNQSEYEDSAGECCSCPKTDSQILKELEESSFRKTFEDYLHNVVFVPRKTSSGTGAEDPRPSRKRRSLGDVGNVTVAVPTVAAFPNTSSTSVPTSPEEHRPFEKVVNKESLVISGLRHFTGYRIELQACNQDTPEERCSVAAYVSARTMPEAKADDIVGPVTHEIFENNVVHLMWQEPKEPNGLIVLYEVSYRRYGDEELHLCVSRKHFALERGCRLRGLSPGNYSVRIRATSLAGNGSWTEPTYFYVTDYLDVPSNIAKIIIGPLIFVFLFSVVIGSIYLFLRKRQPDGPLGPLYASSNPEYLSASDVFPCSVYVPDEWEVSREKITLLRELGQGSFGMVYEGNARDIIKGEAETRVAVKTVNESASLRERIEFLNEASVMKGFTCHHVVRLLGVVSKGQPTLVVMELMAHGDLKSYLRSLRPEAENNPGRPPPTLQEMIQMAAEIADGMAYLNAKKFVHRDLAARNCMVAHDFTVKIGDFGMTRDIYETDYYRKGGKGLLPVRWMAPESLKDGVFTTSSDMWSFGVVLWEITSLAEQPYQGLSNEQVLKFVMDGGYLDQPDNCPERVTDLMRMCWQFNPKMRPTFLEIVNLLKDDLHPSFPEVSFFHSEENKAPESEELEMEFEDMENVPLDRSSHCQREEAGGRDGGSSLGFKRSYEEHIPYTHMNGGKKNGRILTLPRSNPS

| Compound | Residual activity ([1]; 1.0E-06 M) | Residual activity ([1]; 1.0E-07 M) | Residual activity ([2]; 1.0E-06 M) | Residual activity ([2]; 1.0E-07 M) | Residual activity ([3]; 1.0E-06 M) | Residual activity ([3]; 1.0E-07 M) | Residual activity ([4]; NEK7, 1.0E-06 M) | Residual activity ([4]; NEK7, 1.0E-07 M) | Residual activity ([5]; PAK2, 1.0E-06 M) | Residual activity ([5]; PAK2, 1.0E-07 M) | Residual activity ([6]; MLK4, 1.0E-06 M) | Residual activity ([6]; MLK4, 1.0E-07 M) | Residual activity ([7]; MYLK3, 1.0E-06 M) | Residual activity ([7]; MYLK3, 1.0E-07 M) | Residual activity, TAOK3 ([8]; assay conc. 1.0E-06 M) | Residual activity, TAOK3 ([8]; assay conc. 1.0E-07 M) | Residual activity ([9]; MEK5, 1.0E-06 M) | Residual activity ([9]; MEK5, 1.0E-07 M) |
| --- | --- | --- | --- | --- | --- | --- | --- | --- | --- | --- | --- | --- | --- | --- | --- | --- | --- | --- |
| C#Cc1cc(Nc2ncnc3cc(I)ccc23)ccc1Cl [Compound 41] | 96 % of control | 105 % of control | 96 % of control | 109 % of control | 75 % of control | 84 % of control | 101 % of control | 129 % of control | 102 % of control | 108 % of control | 85 % of control | 79 % of control | 93 % of control | 104 % of control | 93 % of control | 87 % of control | 100 % of control | 103 % of control |
| C#Cc1cc(Nc2ncnc3cc(OC)c(OC)cc23)ccc1Cl [Compound 45] | 82 % of control | 97 % of control | 110 % of control | 102 % of control | 91 % of control | 85 % of control | 107 % of control | 117 % of control | 104 % of control | 101 % of control | 83 % of control | 85 % of control | 86 % of control | 100 % of control | 106 % of control | 92 % of control | 108 % of control | 107 % of control |
